“And” between values parts separate entries of the source, which are not always exact repeats. Identical values can stand only once.
Legend:
[1] = Mouse weight changes and symptoms, repeated intravenous administration (HCT116 model); assay type: in vivo; conditions: for Mouse weight changes (%): iv once a day, Example 1 30 mg/kg, topotecan 2 mg/kg
Procedure: Female nude mice at 6 weeks (BALB/c nu/nu, Charles River) were raised in a germ-free facility where temperature and humidity were maintained at proper levels during the whole experimental period. After anesthetizing each mouse, the human rectal cancer cell line HCT116 was transplanted in rectal tissues at the density of 4×10^7 cells/mouse, and then the opened rectum was sealed with surgical clips. After transplanting the rectal cancer cell line, the tumor volume was measured with calipers. When the tumor volume reached 54.5 mm^3, the compound of the present invention prepared in example 1 was treated thereto. Particularly, for the experimental group, the compound of example 1 was dissolved in the solvent composed of saline (80%), DMAC (10%), and tween 80 (10%), which is indicated as ‘solvent A’ hereinafter, at the concentration of 30 mg/kg. The prepared compound solution was intravenously administered to the experimental group mice once a day at the dose of […]. The control was treated with the solvent A only without the compound once a day via oral administration at the dose of 15 ml/kg. The comparative group was treated with the solvent A containing topotecan (2 mg/kg) via intravenous injection once a day at the dose of 15 ml/kg. The weight and the tumor volume were measured once a day on day 0, 2, 3, 4, 5, 6, and 8.
Tumor volume was calculated by the following mathematical formula 1. To investigate the toxicity according to the repeated intravenous administration of the compound of example 1, mouse weight changes were observed and presented in Table 3. Inhibition rate (%) in Table 4 was calculated by the following mathematical formula 2, which indicates the inhibition of tumor growth by the compound presented by %. Tumor Volume(mm^3)=(major axis length of tumor cells, mm)×(minor axis length of tumor cells, mm)^2×0.5 [Mathematical Formula 1] Inhibition Rate (%)=[(Tumor Volume of Control−Tumor Volume of Experimental Group)/(Tumor Volume of Control)]×100 [Mathematical Formula 2]

[2] = test system: human kidney cancer cell line Caki-1; assay: In vivo anticancer activity, intravenous injection 2, Caki-1 kidney cancer in nude mice; parameters: species or system mouse; conditions: Example 1 20 mg/kg/day, topotecan 2 mg/kg/day; for Tumor volume (mm^3) / Tumor weight: iv; for Inhibition rate (%) of tumor volume / Inhibition rate (%) of tumor weight: vs control; for Tumor weight: day 14 (final day)
Procedure: To evaluate the inhibition effect of the compound prepared in example 1 administered via intravenous injection on the growth of kidney cancer, in vivo anticancer activity in mouse was measured. Particularly, nude-mice were grouped for experimental and control groups (5 mice per group). Changes in body weight, tumor volume, and tumor weight were measured to evaluate in vivo anticancer activity.
Female nude mice at 6 weeks (BALB/c nu/nu, Charles River) were raised in a germ-free facility where temperature and humidity were maintained at proper levels during the whole experimental period. After anesthetizing each mouse, the human kidney cancer cell line Caki-1 was transplanted in kidney tissues at the density of 4×10^7 cells/mouse, and then the opened kidney was sealed with surgical clips. After transplanting the kidney cancer cell line, the tumor volume was measured with calipers. When the tumor volume reached 52.7 mm^3, the compound of the present invention prepared in example 1 was treated thereto. Particularly, for the experimental group, the compound of example 1 was dissolved in the solvent composed of cremophor (10%), DMAC (10%), and pH 10 buffer […], which is indicated as ‘solvent B’ hereinafter, at the concentration of 20 mg/kg. The prepared compound solution was intravenously administered to the experimental group mice once a day at the dose of […]. The control was treated with the solvent B only without the compound once a day via oral administration at the dose of 15 ml/kg. The comparative group was treated with the solvent B containing topotecan (2 mg/kg) via intravenous injection once a day at the dose of 15 ml/kg. The weight and the tumor volume were measured once a day on day 0, 2, 4, 7, 9, 11, and 14.
Tumor volume was calculated by the mathematical formula 1 of Experimental Example 4. To investigate the toxicity according to the repeated intravenous administration of the compound of example 1, mouse weight changes were observed and presented in Table 5. Inhibition rate (%) in Table 6 was calculated by the mathematical formula 2, which indicates the inhibition of tumor growth by the compound presented by %.

HIF-1 = assay: Inhibition of HIF-1 mediated HRE transcription activity (pGL3-HRE-luciferase reporter); assay type: cell-based, human; conditions: for HRE transcription activity (%): HCT116, hypoxic condition 12 hours
Procedure: To investigate the inhibition of HIF-1 transcription activity by the compound of the present invention, pGL3-basic vector (Promega) using luciferase as a reporter was cloned in multi-cloning site so as for HRE (Hypoxia Responsive Element, 5′-ACGTG-3′) existing in human VEGF gene to be repeated 6 times, resulting in the construction of pGL3-HRE-luciferase vector.
The human rectal cancer cell line HCT116 was seeded in a 48-well cell culture vessel. On the next day, the cells were transfected with 25 ng of pGL3-HRE-luciferase vector and 2.5 ng of Renilla control vector by using Polyfect reagent. After culturing the cells for 24 hours, the medium was replaced, followed by further culture for 4 hours. Then, the cells were treated with the compound prepared in each example at the concentration of 10 μM respectively, followed by culture in hypoxic condition (oxygen 1%, nitrogen 94%, carbon dioxide 5%) for 12 hours. Lysate was obtained by using RIPA buffer, by which hypoxia-induced luciferase activity was measured by using dual-luciferase assay system (Promega). Hypoxia-induced luciferase activity after the treatment of the compound prepared in example 1 or the compound prepared in comparative example 1 was measured by the same manner as described above except that the compound was treated at the concentrations of 0, 1, 3, 5, 10, and 20 μM. HIF-1 inhibition activity of each compound prepared in example 1 and comparative example 1 respectively was compared and the results are shown in Table 2 and FIG. 2.

SMILES | Mouse weight changes (%) ([1]; day 0) | Mouse weight changes (%) ([1]; day 2) | Mouse weight changes (%) ([1]; day 3) | Mouse weight changes (%) ([1]; day 4) | Mouse weight changes (%) ([1]; day 5) | Mouse weight changes (%) ([1]; day 6) | Mouse weight changes (%) ([1]; day 8) | Tumor volume (mm^3) ([2]; day 0) | Tumor volume (mm^3) ([2]; day 2) | Inhibition rate (%) of tumor volume ([2]; day 2) [%] | Tumor volume (mm^3) ([2]; day 4) | Inhibition rate (%) of tumor volume ([2]; day 4) [%] | Tumor volume (mm^3) ([2]; day 7) | Inhibition rate (%) of tumor volume ([2]; day 7) [%] | Tumor volume (mm^3) ([2]; day 9) | Inhibition rate (%) of tumor volume ([2]; day 9) [%] | Tumor volume (mm^3) ([2]; day 11) | Inhibition rate (%) of tumor volume ([2]; day 11) [%] | Tumor weight [2] [mg] | Tumor volume (mm^3) ([2]; day 14) | also measured
CC[C@@]1(O)C(=O)OCc2c1cc1n(c2=O)Cc2cc3c(CN(C)C)c(O)ccc3nc2-1 [topotecan, reference compound] | 100.0 ± 0.0 | 101.7 ± 1.0 | 101.8 ± 1.1 | 103.2 ± 5.4 | 99.1 ± 1.4 | 98.7 ± 1.7 | 95.6 ± 1.4 | 0.0 ± 0.0 | 16.7 ± 2.3 | 20.1 | 38.7 ± 4.8 | 26.6 | 67.8 ± 8.6 | 33.8 | 88.5 ± 19.6 | 40.6 | 120.9 ± 36.0 | 40.9 | 472.4 ± 137.6 | 156.9 ± 51.3 | Inhibition rate (%) of tumor volume ([2]; day 14): 45.8%; Inhibition rate (%) of tumor weight ([2]; day 14): 48.0%
COC(=O)c1cccc(NC(=O)/C=C/Oc2ccc(C34CC5CC(CC(C5)C3)C4)cc2)c1 [Example 1, (E)-3-[3-(4-Adamantan-1-yl-phenoxy)-acryloylamino]-benzoic acid methyl ester] | 100.0 ± 0.0 | 96.5 ± 2.9 | 94.7 ± 2.3 | 96.0 ± 3.5 | 100.3 ± 1.5 | 101.4 ± 2.5 | 99.9 ± 2.3 | 0.0 ± 0.0 | 17.1 ± 2.0 | 18.4 | 41.4 ± 13.5 | 21.6 | 77.6 ± 11.8 | 24.2 | 107.0 ± 18.5 | 28.2 | 141.9 ± 14.8 | 30.6 | 640.0 ± 61.8 | 200.2 ± 34.2 | HRE transcription activity (%) (HIF-1; 1 μM): 57.7%; HRE transcription activity (%) (HIF-1; 3 μM): 32.1%; HRE transcription activity (%) (HIF-1; 5 μM): 25.4%; HRE transcription activity (%) (HIF-1; 10 μM): 23.0%; HRE transcription activity (%) (HIF-1; 20 μM): 19.8%; inhibition effect on HRE transcription activity compared with the compound of comparative example 1 (HIF-1; cancer cell line HCT116, hypoxia): at least three times higher inhibition effect; body weight on day 8 compared with control ([1]; 30 mg/kg iv, nude mice): no significant weight loss; symptoms during repeated intravenous administration ([1]; 30 mg/kg iv, nude mice): no specific symptom was observed; Inhibition rate (%) of tumor volume ([2]; day 14): 30% and 30.9%; Inhibition rate (%) of tumor weight ([2]; day 14): 29.6%
